# Earlier results, collected in patent publication US20030022912A1, “Rapid-onset medicament for treatment of sexual dysfunction” (priority 2001, published 2003).
# Conditions: human subjects; sublingual administration; drug as free base except where a footnote notes a salt
smiles,measurement,value
C#CCN(C)[C@H](C)Cc1ccccc1 [selegiline],sublingual Tmax,10 min
CCCc1nn(C)c2c(=O)[nH]c(-c3cc(S(=O)(=O)N4CCN(C)CC4)ccc3OCC)nc12 [sildenafil],sublingual Tmax,60 min
COc1c2occc2cc2ccc(=O)oc12 [methoxsalen],sublingual Tmax,25 min
CC(C)NCC(O)c1ccc(NS(C)(=O)=O)cc1 (centres unmarked) [sotalol],sublingual Tmax,126 min
O=[N+]([O-])OCC(CO[N+](=O)[O-])O[N+](=O)[O-] [nitroglycerin],sublingual Tmax,3 min
CN(C)CCCN1c2ccccc2CCc2ccc(Cl)cc21 [clomipramine],sublingual Tmax,90 min
CN1CCc2cccc3c2[C@H]1Cc1ccc(O)c(O)c1-3 [apomorphine],sublingual Tmax,61 min
CN1C(=O)C(O)N=C(c2ccccc2)c2cc(Cl)ccc21 (centres unmarked) [temazepam],sublingual Tmax,65 min
